# Experimental data from patent US8193235B2, “Compositions and methods for establishing and maintaining stem cells in an undifferentiated state” (University of Kansas, priority 2009, dated 2012).
# Key:
# PKC μ = PKC μ (Homo sapiens, UniProt Q15139); details: higher concentrations; cited from earlier work
# NF-κB = experiment: NF-κB5X-Luc reporter activation; assay type: cell-based, mouse; details: E14 cells
# Method: Analysis of NF-κB5X-Luc Reporter Activation. E14 ES or PKCζkd cells (2-4×10^4) were seeded on 24-well plates […]. Cells were transfected with 1 μg of plasmid ([…] NF-kB cis-Reporting System, Stratagene) in OPTI-MEM. Transfection mixture was removed after 5 hours with appropriate media. Luciferase activity was measured 24 hours post-transfection and expressed relative to total protein present in the whole cell lysate.
# E14 ES cells = experiment: ES cell differentiation on collagen IV and with retinoic acid; assay type: cell-based, mouse
# Description: ES Cell Differentiation on Collagen-IV and With Retinoic Acid. To differentiate ES cells in monolayer culture on collagen IV, around 3×10^4 cells per well were transferred to collagen IV-coated 6-well plates (BD Biosciences, Franklin Lakes, N.J.) cultured for 5 days in ES differentiation medium containing DMEM (Invitrogen), 15% FBS (selected for endothelial differentiation, Stem Cell Technologies, Vancouver, BC), sodium pyruvate and L-glutamine with or without LIF and Gö6983, and were recovered by cell dissociation buffer (BD Biosciences, Franklin Lakes, N.J.). For culturing multiple passages with Gö6983 on collagen-IV, the recovered cells were again plated at a density of ˜3×10^4 cells per well and cultured again for 5 days. […] For RA-induced differentiation on monolayer culture, ES cells were treated with all-trans-retinoic acid (Sigma, St. Louis, Mo.) in ethanol at a concentration of 1 μM with or without LIF and Gö6983 for 6 days followed by study of expression of pluripotency markers (by immunofluorescence or western blot or RT-PCR analysis).
# 129/Sv MEFs = experiment: Generation of iPS cells from MEFs; assay type: cell-based, mouse
# Method: Generation of iPS Cells. iPSCs were derived using lentiviral vectors (STEMGENT), expressing four mouse transcription factors (Oct4, Sox2, Klf4 […] c-Myc) under the control of the doxycycline (Dox)-inducible tetO operator. 129/Sv MEFs were infected with viral mix following manufacturer's protocol. Twenty hours post-transduction, cells were reseeded in ES cell growth medium with either LIF or Gö6983 at a density of 5×10^4 cells per well of a 6-well plate and treated with Dox (2 μg/ml) for 48 hours. To determine the phenotype of the iPS colonies, expression of two pluripotency markers, Nanog and Rex-1, were analyzed. For further analysis, each visible iPS colony was manually picked, trypsinized, cells were re-plated at clonal and higher density in medium with Gö6983 and the expression of pluripotent markers were confirmed by RT-PCR and immunofluorescence. For chimera generation, cells from two different iPS clones were propagated at clonal density with Gö6983, expanded for four passages and were injected into blastocysts.
# [1] = test system: H3K27me3, EZH2, H3K9Me3, H3K4Me3 at gene loci; experiment: Quantitative ChIP assay of chromatin marks; assay type: cell-based, mouse
# Method: Quantitative ChIP Assay. Real-time PCR-based quantitative ChIP analysis was performed according to known methods (Dutta, et al. (2008) supra). Proliferating E14 cells (+LIF), ES cells differentiated on Collagen-IV with or without Gö6983 were either trypsinized or collected by using cell-dissociaton buffer and protein-DNA crosslinking was conducted by treating cells with formaldehyde at a final concentration of 1% for 10 minutes at room temperature with gentle agitation. Glycine (0.125 M) was added to quench the reaction. Antibodies against EZH2, SUZ12, H3K27Me3, H3K9Me3, and H3K4Me3 were used to immunoprecipitate protein-DNA crosslinked fragments. Immunoprecipitated DNA was analyzed by real-time PCR (ABI 7500, Applied Biosystem, Foster City, Calif.). Samples from three or more immunoprecipitates were analyzed using a standard curve from sonicated total chromatin (input) samples.
# GSK-3α or GSK-3β = experiment: GSK3 phosphorylation in mESCs; assay type: cell-based, mouse
# Method: E14 ES Cell Cultures. Cells were grown in ES-IMDM media (Lonza, Walkersville, Md.) in a feeder-free condition. ES-IMDM was supplemented with 15% serum, 10^5 U/100 ml of LIF (ESGRO, Millipore, Calif.) and 0.0124% monothioglycerol (MTG; Sigma Aldrich). Cells were grown for 3-5 days with change of medium every day. For inducing differentiation in monolayer culture and to determine the effect of Gö6983 in preventing differentiation, E14 cells were cultured on gelatin-coated plastics for 8 days without LIF. Details of experiments performed at clonal-density are described herein. To maintain E14 cells with Gö6983, serum supplemented ES-IMDM was used in the presence of 5 μM Gö6983 and was passed after every 3-5 days. For all assays involving elucidation of different signaling mechanism responsible for maintenance of pluripotency, cells from a ˜70% confluent ES culture plate were washed two times with 1× phosphate-buffered saline (PBS), trypsinized and plated on a 6-well tissue culture plate and treated with or without LIF or Gö6983 or different inhibitors for ˜10 hours followed by preparation of protein lysates and RNA. The PKCζ knocked-down E14 cells that were generated in this study were maintained in serum supplemented ES-IMDM on gelatin-coated plates in the absence of Gö6983 or LIF or any other inhibitor and passed after 3-5 days. […]
# Chain of PKC μ (Q15139 whole entry): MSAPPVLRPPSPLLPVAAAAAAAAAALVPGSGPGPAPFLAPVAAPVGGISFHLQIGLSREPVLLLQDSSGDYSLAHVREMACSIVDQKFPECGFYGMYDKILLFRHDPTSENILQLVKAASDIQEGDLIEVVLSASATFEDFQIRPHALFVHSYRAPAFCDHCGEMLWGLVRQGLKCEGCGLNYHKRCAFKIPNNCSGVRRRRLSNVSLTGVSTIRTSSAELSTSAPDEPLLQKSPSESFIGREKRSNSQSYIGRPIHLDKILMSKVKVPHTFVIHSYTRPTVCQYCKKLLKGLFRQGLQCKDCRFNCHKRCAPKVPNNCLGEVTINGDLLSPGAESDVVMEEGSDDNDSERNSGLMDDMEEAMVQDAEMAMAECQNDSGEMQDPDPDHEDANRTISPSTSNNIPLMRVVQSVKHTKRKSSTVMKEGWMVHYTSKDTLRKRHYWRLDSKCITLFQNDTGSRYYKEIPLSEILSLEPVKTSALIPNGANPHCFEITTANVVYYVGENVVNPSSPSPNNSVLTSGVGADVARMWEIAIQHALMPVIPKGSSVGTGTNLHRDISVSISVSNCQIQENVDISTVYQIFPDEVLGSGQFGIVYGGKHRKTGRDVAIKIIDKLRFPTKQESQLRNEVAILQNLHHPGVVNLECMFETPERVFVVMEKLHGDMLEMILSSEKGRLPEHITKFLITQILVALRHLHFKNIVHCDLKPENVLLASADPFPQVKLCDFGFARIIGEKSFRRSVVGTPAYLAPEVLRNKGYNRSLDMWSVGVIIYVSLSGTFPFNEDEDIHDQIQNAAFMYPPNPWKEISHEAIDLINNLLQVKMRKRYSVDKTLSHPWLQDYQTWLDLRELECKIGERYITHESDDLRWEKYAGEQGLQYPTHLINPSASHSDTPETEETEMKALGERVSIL
structure (smiles),measurement,setting,value
"COc1ccc2c(c1)c(C1=C(c3c[nH]c4ccccc34)C(=O)NC1=O)cn2CCCN(C)C [Gö6983, 3-[1-[3-(dimethylamino)propyl]5-methoxy-1H-indol-3-yl]-4-(1H-indol-3-yl)-1H-pyrrole-2,5-dione]",concentration that inhibits isoform PKC μ,PKC μ,> 20 µM
same,NFκ5x-Luc reporter gene activation,NF-κB,strongly inhibited
same,multidifferentiation potential upon withdrawal of Gö6983,"E14 ES cells; ES cells maintained five passages with Gö6983, then withdrawal, FIG. 1E",readily formed EBs or differentiated on collagen IV with induction of lineage-specific gene expression
same,ES cell differentiation in the presence of collagen IV or retinoic acid,E14 ES cells; absence of LIF,inhibited ES cell differentiation
same,lineage-specific gene expression on collagen IV,"E14 ES cells; quantitative RT-PCR, FIG. 1D",repression of lineage-specific gene expression
same,differentiation during continuous culture on collagen IV plates,"E14 ES cells; without LIF, up to 8 consecutive passages",without any noticeable differentiation
same,efficiency of obtaining matured iPSC colonies compared to LIF,129/Sv MEFs; FIG. 4B,three fold higher
same,time to appearance of ES cell-like iPSC colonies,"129/Sv MEFs; MEFs with Oct4, Sox2, KLF4, cMyc",12 days
same,rate of obtaining iPSC colonies compared to LIF,"129/Sv MEFs; colonies defined by Nanog and Rex-1, FIG. 4A",significantly faster rate
same,propagation of iPSCs at clonal density,129/Sv MEFs; with Gö6983,readily propagated at clonal density
same,H3K4 methylation (H3K4Me3) at Oct4 and Nanog loci,[1],high levels of H3K4 methylation
same,H3K9 methylation at the Oct4 and Nanog loci,[1],inhibited H3K9 methylation
same,H3K27me3 and EZH2 chromatin occupancy at developmental regulator genes,[1]; mESCs,maintained high levels of H3K27me3 and chromatin occupancy
same,phosphorylation of GSK-3α or GSK-3β,GSK-3α or GSK-3β,did not significantly change
